Assay results reported in patent publication US8420657B2 (Novartis AG, priority 2008, dated 2013).

Target: T1, GST-JAK2(808-1132) (Homo sapiens, UniProt O60674)
T1 construct: GST-JAK2(808-1132); purchased Invitrogen (Carlsbad, USA) #4288
Assay: JAK2 kinase assay (Caliper mobility shift, LabChip 3000)
Format: biochemical
Description: All four kinases of the JAK/TYK-kinase family were used as purified recombinant GST-fusion proteins, containing the active kinase domains. GST-JAK1 (866-1154), GST-JAK3(811-1124), and GST-TYK2(888-1187) were expressed and purified by affinity chromatography at the EPK biology unit. GST-JAK2(808-1132) was purchased from Invitrogen (Carlsbad, USA, #4288).
The kinase assays were based on the Caliper mobility shift assay using the LabChip 3000 systems. This technology is similar to capillary electrophoresis and uses charge driven separation of substrate and product in a microfluidic chip.
All kinase reactions were performed in 384 well microtiter plates in a total reaction volume of 18 μl. The assay plates were prepared with 0.1 μl per well of test compound in the appropriate test concentration, as described under the section “preparation of compound dilutions”. The reactions were started by combining 9 μl of substrate mix (consisting of peptide and ATP) with 9 μl of kinase dilution. The reactions were incubated for 60 minutes at 30° C. and stopped by adding 70 μl of stop buffer (100 mM Hepes, 5% DMSO, 0.1% Coating reagent, 10 mM EDTA, 0.015% Brij 35).
Fluorescently labeled synthetic peptides were used as substrates in all reactions. A peptide derived from the sequence of IRS-1(IRS-1 peptide, SEQ ID NO: 1 FITC-Ahx-KKSRGDYMTMQIG-NH2) was used for JAK1 and TYK2 and a peptide named JAK3tide SEQ ID NO: 2 (FITC-GGEEEEYFELVKKKK-NH2) for JAK2 and JAK3. Specific assay conditions are described in Table1:
The terminated reactions were transferred to the Caliper LabChip 3000 reader and the turnover of each reaction was measured by determining the substrate/product ratio.
Test compounds were dissolved in DMSO (10 mM) and transferred into 1.4 mL flat bottom or V-shaped Matrix tubes carrying a unique 2D matrix chip by individual compound hubs. The numbers of these chips were distinctively linked to the individual compound identification numbers. The stock solutions were stored at −20° C. if not used immediately. For the test procedure the vials were defrosted and identified by a scanner whereby a working sheet was generated that guided the subsequent working steps. Compound dilutions were made in 96 well plates. This format enabled the assay of maximally 40 individual test compounds at 8 concentrations (single points) including 4 reference compounds. The dilution protocol included the production of pre-dilution plates, master plates and assay plates:
Pre-dilution plates: 96 polypropylene well plates were used as pre-dilution plates. A total of 4 pre-dilution plates were prepared including 10 test compounds each on the plate positions A1-A10, one standard compound at A11 and one DMSO control at A12. All dilution steps were done on a HamiltonSTAR robot.
Master plates: 100 μL of individual compound dilutions including standard compound and controls of the 4 “pre-dilution plates” were transferred into a 384 “master plate” including the following concentrations 1,820, […], 182, 54.6, 18.2, 5.46, 1.82 and 0.546 μM, respectively in 90% of DMSO.
Assay plates: Identical assay plates were then prepared by pipetting 100 nL each of compound dilutions of the master plates into 384-well “assay plates”. In the following the compounds were mixed with 9 μL of assays components plus 9 μL enzyme corresponding to a 1:181 dilution steps enabling the final concentration of 10, 3.0, 1.0, 0.3, 0.1, 0.03, 0.01 and 0.003 μM, respectively. The preparation of the master plates were handled by the Matrix PlateMate Plus robot and replication of assay plates by the HummingBird robot.

T1 sequence (O60674 808-1132): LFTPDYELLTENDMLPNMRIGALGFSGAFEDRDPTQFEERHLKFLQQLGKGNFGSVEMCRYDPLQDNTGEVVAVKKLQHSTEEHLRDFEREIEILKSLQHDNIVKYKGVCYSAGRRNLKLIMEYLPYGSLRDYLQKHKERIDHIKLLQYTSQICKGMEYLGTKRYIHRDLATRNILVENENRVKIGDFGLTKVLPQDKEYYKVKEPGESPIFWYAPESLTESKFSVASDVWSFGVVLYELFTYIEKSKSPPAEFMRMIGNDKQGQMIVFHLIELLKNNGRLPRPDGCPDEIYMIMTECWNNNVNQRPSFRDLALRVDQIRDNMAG

SMILES | IC50 [nM]
C[C@@H]1CN[C@@H](C)CN1c1ccc(Nc2ncc3ccn(-c4ccc(S(N)(=O)=O)cc4)c3n2)cn1 (racemic) [Example 357, 4-{2-[6-((2R,5S)-2,5-Dimethyl-piperazin-1-yl)-pyridin-3-ylamino]-pyrrolo[2,3-d]pyrimidin-7-yl}-benzenesulfonamide] | 6.9
Cc1ccc(Nc2ncc3ccn(-c4ccc(C(=O)N5CCOCC5)c(F)c4)c3n2)cc1CN1C[C@H](C)NC[C@H]1C (racemic) [Example 379, (4-{2-[3-((2R,5S)-2,5-Dimethyl-piperazin-1-ylmethyl)-4-methyl-phenylamino]-pyrrolo[2,3-d]pyrimidin-7-yl}-2-fluoro-phenyl)-morpholin-4-yl-methanone] | 11
COc1ccc(Nc2ncc3ccn(-c4ccc(S(=O)(=O)NC(C)(C)C)cc4)c3n2)cc1OC [Example 6, N-tert-Butyl-4-[2-(3,4-dimethoxy-phenylamino)-pyrrolo[2,3-d]pyrimidin-7-yl]-benzenesulfonamide] | < 3
COc1cc(Nc2ncc3ccn(-c4ccc(C(=O)NC(C)(C)C)cc4)c3n2)cc(OC)c1OC [Example 9, N-tert-Butyl-4-[2-(3,4,5-trimethoxy-phenylamino)-pyrrolo[2,3-d]pyrimidin-7-yl]-benzamide] | < 3
COc1cc(Nc2ncc3ccn(-c4ccc(S(=O)(=O)N(C)C)cc4)c3n2)cc(OC)c1OC [Example 10, N,N-Dimethyl-4-[2-(3,4,5-trimethoxy-phenylamino)-pyrrolo[2,3-d]pyrimidin-7-yl]-benzenesulfonamide] | < 3
COc1cc(C)c(Nc2ncc3ccn(-c4ccc(S(C)(=O)=O)cc4)c3n2)cc1OC [Example 11, (4,5-Dimethoxy-2-methyl-phenyl)-[7-(4-methanesulfonyl-phenyl)-7H-pyrrolo[2,3-d]pyrimidin-2-yl]-amine] | 190
CN1CCN2c3ccc(Nc4ncc5ccn(-c6ccc(S(C)(=O)=O)cc6)c5n4)cc3COCC2C1 (stereo not shown) [Example 12, [7-(4-Methanesulfonyl-phenyl)-7H-pyrrolo[2,3-d]pyrimidin-2-yl]-(3-methyl-1,2,3,4,4a,5-hexahydro-7H-6-oxa-3,11b-diaza-dibenzo[a,c]cyclohepten-9-yl)-amine] | < 3
CS(=O)(=O)c1ccc(-n2ccc3cnc(Nc4ccc5c(c4)OC(F)(F)C(F)(F)O5)nc32)cc1 [Example 14, [7-(4-Methanesulfonyl-phenyl)-7H-pyrrolo[2,3-d]pyrimidin-2-yl]-(2,2,3,3-tetrafluoro-2,3-dihydro-benzo[1,4]dioxin-6-yl)-amine] | 2100
CS(=O)(=O)c1ccc(-n2ccc3cnc(Nc4ccc5c(c4)OCO5)nc32)cc1 [Example 15, Benzo[1,3]dioxol-5-yl-[7-(4-methanesulfonyl-phenyl)-7H-pyrrolo[2,3-d]pyrimidin-2-yl]-amine] | 8.5

Continued, values first:

IC50 [nM] | SMILES
≤ 3 | OC1CCN(Cc2ccc(Nc3ncc4ccn(-c5cc(F)c(CN6CCOCC6)c(F)c5)c4n3)cn2)C1 (racemic) [Example 388, 1-{5-[7-(3,5-Difluoro-4-morpholin-4-ylmethyl-phenyl)-7H-pyrrolo[2,3-d]pyrimidin-2-ylamino]-pyridin-2-ylmethyl}-pyrrolidin-3-ol]
≤ 3 | OC1CCN(Cc2cc(Nc3ncc4ccn(-c5cc(F)c(CN6CCOCC6)c(F)c5)c4n3)ccn2)C1 (racemic) [Example 416, 1-{4-[7-(3,5-Difluoro-4-morpholin-4-ylmethyl-phenyl)-7H-pyrrolo[2,3-d]pyrimidin-2-ylamino]-pyridin-2-ylmethyl}-pyrrolidin-3-ol]
≤ 3 | COC(C)c1ccc(-n2ccc3cnc(Nc4ccc(N5CCN(C)CC5)nc4)nc32)cc1 (racemic) [Example 449, {7-[4-(1-Methoxy-ethyl)-phenyl]-7H-pyrrolo[2,3-d]pyrimidin-2-yl}-[6-(4-methyl-piperazin-1-yl)-pyridin-3-yl]-amine]
< 3 | COc1ccc(Nc2ncc3ccn(-c4ccc(S(C)(=O)=O)cc4)c3n2)cc1OC [Example 5, (3,4-Dimethoxy-phenyl)-[7-(4-methanesulfonyl-phenyl)-7H-pyrrolo[2,3-d]pyrimidin-2-yl]-amine]
